Reference: PMC10746543, “Design principles for cyclin K molecular glue degraders” (Nature Chemical Biology, 2023)
Where “and” joins values, the source holds several entries; their conditions need not be identical. Identical values can stand only once. Like-named read-outs stand apart in the source and are kept apart here.

Experiments:
CDK12–cyclin K = CDK12–cyclin K (Homo sapiens, UniProt Q9NYV4); assay: Lanthascreen kinase binding assay, CDK12; conditions: for IC50: Supplementary Table 2, read-out: Lanthascreen IC50 [nM] CDK12; for Lanthascreen raw signal, sheet CDK12: duplicates
Description: (§1) Lanthascreen experiments were performed using commercially available reagents (Thermo Fisher) and according to the manufacturer’s instructions.

HEK293T cells = assay: Drug sensitivity assay (CellTiter-Glo viability) with or without MLN4924 pretreatment; assay type: cell-based, human; conditions: Supplementary Table 2; for EC50: Homo sapiens, HEK-293T, HEK293T viability, 72 h, compound alone, read-out: Cellular assays EC50; for Toxicity rescue: MLN4924-mediated cytotoxicity rescue, 10 µM used where n.d.
Summary of the method: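 Viability of HEK293T–Cas9 cells was compared after 3-day drug treatment with or without 100 nM MLN4924 pretreatment (2 h, versus DMSO). Values are CellTiter-Glo signals relative to DMSO controls.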

CDK2–cyclin A = molecular target: T1, CDK2–cyclin A (Homo sapiens, UniProt P24941); assay: Lanthascreen kinase binding assay, CDK2; conditions: for Lanthascreen signal, sheet CDK2: raw replicates
T1 construct: purchased Thermo Fisher
Description: as §1

CDK9–cyclin T = molecular target: T2, CDK9–cyclin T (Homo sapiens, UniProt P50750); assay: Lanthascreen kinase binding assay, CDK9; conditions: for IC50: Supplementary Table 2, read-out: Lanthascreen IC50 [nM] CDK9; for Lanthascreen TR-FRET signal (raw ratio), sheet CDK9: duplicates
T2 construct: purchased Thermo Fisher
Description: as §1

[1] = test system: cyclin K–eGFP degradation reporter; assay: Cyclin K reporter stability analysis (dual-color cyclin K–eGFP reporter); assay type: cell-based, human; conditions: source data sheet correlations; read-out: DC50
Summary of the method: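 HEK293T–Cas9 cells carrying the cyclin K–eGFP reporter were seeded at 1 × 10^6 ml^−1 and exposed to drug or DMSO for 5 h. Flow cytometry gave geometric means of eGFP and mCherry in round, mCherry-positive cells. The eGFP/mCherry ratio was normalized to the mean of three DMSO controls.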

CDK12–cyclin K and DDB1 = molecular target: T3, CDK12–cyclin K and DDB1 (Homo sapiens, UniProt Q16531+Q9NYV4, K965R); assay: TR-FRET ternary complex formation assay (compound titration); assay type: binding; conditions: for EC50: read-out: TR-FRET EC50
T3 construct: His6–CDK12 (a.a. 713–1,052); full-length or beta-propeller B domain deletion (ΔBPB: a.a. 396–705 deleted) constructs of His6–DDB1ΔBPB, StrepII–Avi–DDB1, or His6–Spy–DDB1; made in house; host or cells: Trichoplusia ni High Five insect cells (baculovirus)
Summary of the method: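 Delayed (70 μs) time-resolved read; FRET computed as 520 nm over 490 nm emission.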

[2] = Supplementary Table 2, read-out: Lanthascreen IC50 [nM] CDK2

CDK12–cyclin K, sequence (Q9NYV4 713-1052): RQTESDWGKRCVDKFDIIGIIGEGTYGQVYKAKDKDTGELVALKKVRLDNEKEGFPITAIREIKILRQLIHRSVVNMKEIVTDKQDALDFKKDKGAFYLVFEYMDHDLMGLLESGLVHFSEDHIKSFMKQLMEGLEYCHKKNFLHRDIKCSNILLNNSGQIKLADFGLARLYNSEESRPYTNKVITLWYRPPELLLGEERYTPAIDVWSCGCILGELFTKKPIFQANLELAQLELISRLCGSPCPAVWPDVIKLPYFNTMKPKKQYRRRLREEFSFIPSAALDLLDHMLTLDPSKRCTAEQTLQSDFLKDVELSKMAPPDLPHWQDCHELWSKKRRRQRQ
CDK12–cyclin K, sequence (O75909 1-267 partner limits assumed): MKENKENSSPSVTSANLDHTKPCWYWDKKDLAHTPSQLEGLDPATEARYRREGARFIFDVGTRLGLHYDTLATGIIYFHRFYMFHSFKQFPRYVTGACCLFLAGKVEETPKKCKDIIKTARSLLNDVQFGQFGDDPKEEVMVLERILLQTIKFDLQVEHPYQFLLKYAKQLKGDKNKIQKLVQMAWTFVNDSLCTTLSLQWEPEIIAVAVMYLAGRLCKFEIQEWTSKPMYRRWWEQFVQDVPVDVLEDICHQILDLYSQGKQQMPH
T3 sequence (Q9NYV4 713-1052 K965R): as the sequence (Q9NYV4 713-1052) above, with K253R counted along it
T3 sequence (O75909 1-267 partner): as the sequence (O75909 1-267 partner limits assumed) above
T3 sequence (Q16531 whole entry): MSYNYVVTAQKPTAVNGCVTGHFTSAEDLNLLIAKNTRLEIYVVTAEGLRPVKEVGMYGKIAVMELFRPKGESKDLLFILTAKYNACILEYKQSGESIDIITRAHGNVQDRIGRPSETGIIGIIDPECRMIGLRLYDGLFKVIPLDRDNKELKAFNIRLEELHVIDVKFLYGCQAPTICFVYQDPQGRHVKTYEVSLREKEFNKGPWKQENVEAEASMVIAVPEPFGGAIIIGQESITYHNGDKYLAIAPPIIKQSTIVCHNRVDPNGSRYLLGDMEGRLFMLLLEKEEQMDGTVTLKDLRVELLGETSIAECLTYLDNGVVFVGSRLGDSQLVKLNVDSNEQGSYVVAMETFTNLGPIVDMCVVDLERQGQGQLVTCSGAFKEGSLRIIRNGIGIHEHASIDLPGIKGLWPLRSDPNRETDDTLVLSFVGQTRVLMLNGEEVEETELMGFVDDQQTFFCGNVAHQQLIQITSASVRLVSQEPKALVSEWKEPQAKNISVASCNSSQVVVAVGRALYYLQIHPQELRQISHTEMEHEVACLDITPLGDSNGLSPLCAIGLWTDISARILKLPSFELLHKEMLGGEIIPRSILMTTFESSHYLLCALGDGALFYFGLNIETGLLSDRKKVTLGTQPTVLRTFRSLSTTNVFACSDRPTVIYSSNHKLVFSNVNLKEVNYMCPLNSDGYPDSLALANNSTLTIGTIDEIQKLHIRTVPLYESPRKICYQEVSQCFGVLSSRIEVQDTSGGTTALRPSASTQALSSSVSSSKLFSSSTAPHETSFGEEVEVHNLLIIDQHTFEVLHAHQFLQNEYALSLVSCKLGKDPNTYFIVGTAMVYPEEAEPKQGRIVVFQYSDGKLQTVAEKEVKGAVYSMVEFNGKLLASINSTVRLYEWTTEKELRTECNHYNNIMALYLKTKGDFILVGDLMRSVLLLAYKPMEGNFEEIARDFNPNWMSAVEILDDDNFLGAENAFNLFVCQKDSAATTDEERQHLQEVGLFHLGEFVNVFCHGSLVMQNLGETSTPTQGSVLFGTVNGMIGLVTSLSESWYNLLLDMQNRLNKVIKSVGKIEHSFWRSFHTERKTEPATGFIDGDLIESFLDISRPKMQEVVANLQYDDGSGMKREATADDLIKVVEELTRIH
T2 sequence (P50750 whole entry): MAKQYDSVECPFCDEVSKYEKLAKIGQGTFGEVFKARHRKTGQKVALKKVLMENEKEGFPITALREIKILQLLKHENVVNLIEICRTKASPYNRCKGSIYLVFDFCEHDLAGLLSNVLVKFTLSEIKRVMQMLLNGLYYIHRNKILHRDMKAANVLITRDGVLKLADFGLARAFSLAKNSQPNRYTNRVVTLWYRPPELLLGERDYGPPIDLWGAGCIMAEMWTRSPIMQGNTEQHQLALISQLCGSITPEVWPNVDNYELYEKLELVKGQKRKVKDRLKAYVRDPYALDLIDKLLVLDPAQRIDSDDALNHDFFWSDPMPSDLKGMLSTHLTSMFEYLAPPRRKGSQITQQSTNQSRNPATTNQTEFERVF
T2 sequence (O60563 whole entry partner): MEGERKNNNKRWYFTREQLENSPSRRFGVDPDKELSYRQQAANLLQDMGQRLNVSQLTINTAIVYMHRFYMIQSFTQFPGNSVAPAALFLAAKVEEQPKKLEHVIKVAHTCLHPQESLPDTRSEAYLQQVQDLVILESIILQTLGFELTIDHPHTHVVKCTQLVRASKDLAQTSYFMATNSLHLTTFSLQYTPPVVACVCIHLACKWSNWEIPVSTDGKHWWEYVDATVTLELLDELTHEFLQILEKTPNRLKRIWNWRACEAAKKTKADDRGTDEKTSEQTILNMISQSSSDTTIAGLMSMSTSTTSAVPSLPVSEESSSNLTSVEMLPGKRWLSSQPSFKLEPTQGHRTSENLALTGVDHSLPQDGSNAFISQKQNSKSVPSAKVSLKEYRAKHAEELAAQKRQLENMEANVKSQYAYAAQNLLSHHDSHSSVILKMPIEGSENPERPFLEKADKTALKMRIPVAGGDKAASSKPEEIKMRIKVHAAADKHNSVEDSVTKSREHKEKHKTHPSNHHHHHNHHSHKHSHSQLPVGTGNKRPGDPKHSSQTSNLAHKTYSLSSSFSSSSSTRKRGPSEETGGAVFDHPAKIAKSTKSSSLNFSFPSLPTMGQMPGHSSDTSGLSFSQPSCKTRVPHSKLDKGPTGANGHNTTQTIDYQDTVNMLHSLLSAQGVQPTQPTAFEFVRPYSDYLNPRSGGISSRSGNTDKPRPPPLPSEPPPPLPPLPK

COc1cc2nc(CN3CCc4sccc4C3)[nH]c(=O)c2cc1OC [Z12]
IC50 (CDK12–cyclin K): 1940 nM
Lanthascreen raw signal, sheet CDK12 (CDK12–cyclin K; compound 1.02544 nM, series r1): 0.008768 and 0.008409
Lanthascreen raw signal, sheet CDK12 (CDK12–cyclin K; compound 3.15521 nM, series r1): 0.009734 and 0.0102
Lanthascreen raw signal, sheet CDK12 (CDK12–cyclin K; compound 9.46563 nM, series r1): 0.009031 and 0.008491
Lanthascreen raw signal, sheet CDK12 (CDK12–cyclin K; compound 31.5521 nM, series r1): 0.008872 and 0.01072
Lanthascreen raw signal, sheet CDK12 (CDK12–cyclin K; compound 99.3891 nM, series r1): 0.01101 and 0.009378
Lanthascreen raw signal, sheet CDK12 (CDK12–cyclin K; compound 315.521 nM, series r1): 0.008266 and 0.00879
Lanthascreen raw signal, sheet CDK12 (CDK12–cyclin K; compound 3155.21 nM, series r1): 0.006586 and 0.00831
Lanthascreen raw signal, sheet CDK12 (CDK12–cyclin K; compound 10002 nM, series r1): 0.00787 and 0.005759
EC50 (HEK293T cells): 1370 nM
Toxicity rescue (HEK293T cells): 49%
Lanthascreen signal, sheet CDK2 (CDK2–cyclin A; Compound 1.02544 nM, experiment r1-r11): 0.01113 and 0.009882
Lanthascreen signal, sheet CDK2 (CDK2–cyclin A; Compound 3.15521 nM, experiment r1-r11): 0.009971 and 0.01033
Lanthascreen signal, sheet CDK2 (CDK2–cyclin A; Compound 9.46563 nM, experiment r1-r11): 0.01229 and 0.009342
Lanthascreen signal, sheet CDK2 (CDK2–cyclin A; Compound 31.5521 nM, experiment r1-r11): 0.009577 and 0.009489
Lanthascreen signal, sheet CDK2 (CDK2–cyclin A; Compound 99.3891 nM, experiment r1-r11): 0.0109 and 0.009513
Lanthascreen signal, sheet CDK2 (CDK2–cyclin A; Compound 315.521 nM, experiment r1-r11): 0.01017 and 0.01118
Lanthascreen signal, sheet CDK2 (CDK2–cyclin A; Compound 3155.21 nM, experiment r1-r11): 0.009276 and 0.007116
Lanthascreen signal, sheet CDK2 (CDK2–cyclin A; Compound 10002 nM, experiment r1-r11): 0.008712 and 0.007113
IC50 (CDK2–cyclin A; Lanthascreen, average, Extended Data Fig. 8, read-out: CDK2 IC50): > 10000 nM
IC50 (CDK2–cyclin A; [2]): > 10000 nM
IC50 (CDK9–cyclin T): 2230 nM
Lanthascreen TR-FRET signal (raw ratio), sheet CDK9 (CDK9–cyclin T; compound 1.02544 nM, first titration set (r1)): 0.01363 and 0.01444
Lanthascreen TR-FRET signal (raw ratio), sheet CDK9 (CDK9–cyclin T; compound 3.15521 nM, first titration set (r1)): 0.01374 and 0.01202
Lanthascreen TR-FRET signal (raw ratio), sheet CDK9 (CDK9–cyclin T; compound 9.46563 nM, first titration set (r1)): 0.01193 and 0.01374
Lanthascreen TR-FRET signal (raw ratio), sheet CDK9 (CDK9–cyclin T; compound 31.5521 nM, first titration set (r1)): 0.01293 and 0.01321
Lanthascreen TR-FRET signal (raw ratio), sheet CDK9 (CDK9–cyclin T; compound 99.3891 nM, first titration set (r1)): 0.01614 and 0.01565
Lanthascreen TR-FRET signal (raw ratio), sheet CDK9 (CDK9–cyclin T; compound 315.521 nM, first titration set (r1)): 0.01216 and 0.01193
Lanthascreen TR-FRET signal (raw ratio), sheet CDK9 (CDK9–cyclin T; compound 3155.21 nM, first titration set (r1)): 0.009114 and 0.00834
Lanthascreen TR-FRET signal (raw ratio), sheet CDK9 (CDK9–cyclin T; compound 10002 nM, first titration set (r1)): 0.005656 and 0.005947
DC50 [1]: 3490 nM
EC50 (CDK12–cyclin K and DDB1; source data sheet correlations): 833 nM

CC(C)n1cnc2c(NCc3nc4cc(Cl)c(Cl)cc4[nH]3)nc(N3CCOCC3)nc21 [DS18]
CDK inhibitory selectivity, result in words (CDK12–cyclin K; Lanthascreen across CDK2/9/12): CDK12 selective
IC50 (CDK12–cyclin K): 289 nM
Lanthascreen raw signal, sheet CDK12 (CDK12–cyclin K; compound 0.038147 nM, series r37): 0.01361 and 0.01362
Lanthascreen raw signal, sheet CDK12 (CDK12–cyclin K; compound 0.152588 nM, series r37): 0.01347 and 0.01332
Lanthascreen raw signal, sheet CDK12 (CDK12–cyclin K; compound 0.610352 nM, series r37): 0.0127 and 0.0128
Lanthascreen raw signal, sheet CDK12 (CDK12–cyclin K; compound 9.76563 nM, series r37): 0.01118 and 0.01013
Lanthascreen raw signal, sheet CDK12 (CDK12–cyclin K; compound 39.0625 nM, series r37): 0.009017 and 0.009485
Lanthascreen raw signal, sheet CDK12 (CDK12–cyclin K; compound 156.25 nM, series r37): 0.008554 and 0.0083
Lanthascreen raw signal, sheet CDK12 (CDK12–cyclin K; compound 625 nM, series r37): 0.007301 and 0.007453
Lanthascreen raw signal, sheet CDK12 (CDK12–cyclin K; compound 2500 nM, series r37): 0.006348 and 0.005959
Lanthascreen raw signal, sheet CDK12 (CDK12–cyclin K; compound 10000 nM, series r37): 0.004442 and 0.004613
EC50 (HEK293T cells): 101 nM
Toxicity rescue (HEK293T cells): 89%
Lanthascreen signal, sheet CDK2 (CDK2–cyclin A; Compound 0.038147 nM, experiment r36-r46): 0.01344 and 0.01366
Lanthascreen signal, sheet CDK2 (CDK2–cyclin A; Compound 0.152588 nM, experiment r36-r46): 0.01349 and 0.01367
Lanthascreen signal, sheet CDK2 (CDK2–cyclin A; Compound 0.610352 nM, experiment r36-r46): 0.01404 and 0.01386
Lanthascreen signal, sheet CDK2 (CDK2–cyclin A; Compound 9.76563 nM, experiment r36-r46): 0.01422 and 0.01378
Lanthascreen signal, sheet CDK2 (CDK2–cyclin A; Compound 39.0625 nM, experiment r36-r46): 0.01396 and 0.01343
Lanthascreen signal, sheet CDK2 (CDK2–cyclin A; Compound 156.25 nM, experiment r36-r46): 0.01511 and 0.01391
Lanthascreen signal, sheet CDK2 (CDK2–cyclin A; Compound 625 nM, experiment r36-r46): 0.01354 and 0.01331
Lanthascreen signal, sheet CDK2 (CDK2–cyclin A; Compound 2500 nM, experiment r36-r46): 0.01311 and 0.01172
Lanthascreen signal, sheet CDK2 (CDK2–cyclin A; Compound 10000 nM, experiment r36-r46): 0.009843 and 0.008946
IC50 (CDK2–cyclin A; [2]): 5730 nM
IC50 (CDK9–cyclin T): 4480 nM
Lanthascreen TR-FRET signal (raw ratio), sheet CDK9 (CDK9–cyclin T; compound 0.038147 nM, third titration set (r25)): 0.02012 and 0.0204
Lanthascreen TR-FRET signal (raw ratio), sheet CDK9 (CDK9–cyclin T; compound 0.152588 nM, third titration set (r25)): 0.02154 and 0.01902
Lanthascreen TR-FRET signal (raw ratio), sheet CDK9 (CDK9–cyclin T; compound 0.610352 nM, third titration set (r25)): 0.02155 and 0.01817
Lanthascreen TR-FRET signal (raw ratio), sheet CDK9 (CDK9–cyclin T; compound 9.76563 nM, third titration set (r25)): 0.02115 and 0.01877
Lanthascreen TR-FRET signal (raw ratio), sheet CDK9 (CDK9–cyclin T; compound 39.0625 nM, third titration set (r25)): 0.01878 and 0.01673
Lanthascreen TR-FRET signal (raw ratio), sheet CDK9 (CDK9–cyclin T; compound 156.25 nM, third titration set (r25)): 0.02006 and 0.01591
Lanthascreen TR-FRET signal (raw ratio), sheet CDK9 (CDK9–cyclin T; compound 625 nM, third titration set (r25)): 0.01306 and 0.01486
Lanthascreen TR-FRET signal (raw ratio), sheet CDK9 (CDK9–cyclin T; compound 2500 nM, third titration set (r25)): 0.01488 and 0.01061
Lanthascreen TR-FRET signal (raw ratio), sheet CDK9 (CDK9–cyclin T; compound 10000 nM, third titration set (r25)): 0.007693 and 0.006879
DC50 [1]: 13 nM
TR-FRET signal at compound concentration 0.468 nM (CDK12–cyclin K and DDB1; compound concentration 0.468 nM, raw replicate titration data): 0.2789 and 0.2869 and 0.2441 and 0.2388
TR-FRET signal at compound concentration 2.16 nM (CDK12–cyclin K and DDB1; compound concentration 2.16 nM, raw replicate titration data): 0.4628 and 0.4735 and 0.4069 and 0.4155
TR-FRET signal at compound concentration 3.6 nM (CDK12–cyclin K and DDB1; compound concentration 3.6 nM, raw replicate titration data): 0.8592 and 0.9781 and 0.8008 and 0.8631
TR-FRET signal at compound concentration 7.92001 nM (CDK12–cyclin K and DDB1; compound concentration 7.92001 nM, raw replicate titration data): 1.943 and 2.09 and 1.796 and 1.964
TR-FRET signal at compound concentration 15.84 nM (CDK12–cyclin K and DDB1; compound concentration 15.84 nM, raw replicate titration data): 3.635 and 3.77 and 3.448 and 3.586
TR-FRET signal at compound concentration 30.96 nM (CDK12–cyclin K and DDB1; compound concentration 30.96 nM, raw replicate titration data): 4.1538 and 4.3056 and 4.1745 and 4.207
TR-FRET signal at compound concentration 62.6401 nM (CDK12–cyclin K and DDB1; compound concentration 62.6401 nM, raw replicate titration data): 4.1015 and 4.249 and 4.2539 and 4.27
TR-FRET signal at compound concentration 125.28 nM (CDK12–cyclin K and DDB1; compound concentration 125.28 nM, raw replicate titration data): 4.175 and 4.298 and 4.2336 and 4.275
TR-FRET signal at compound concentration 244.8 nM (CDK12–cyclin K and DDB1; compound concentration 244.8 nM, raw replicate titration data): 4.152 and 4.298 and 4.309 and 4.217
TR-FRET signal at compound concentration 993.601 nM (CDK12–cyclin K and DDB1; compound concentration 993.601 nM, raw replicate titration data): 4.169 and 4.339 and 4.296 and 4.306
TR-FRET signal at compound concentration 2001.6 nM (CDK12–cyclin K and DDB1; compound concentration 2001.6 nM, raw replicate titration data): 4.114 and 4.419 and 4.291 and 4.3409
EC50 (CDK12–cyclin K and DDB1; in vitro complex formation, 50 nM CDK12–cyclin K, 100 nM DDB1, text and figures): 9 ± 0.2 nM
EC50 (CDK12–cyclin K and DDB1; source data sheet correlations): 8.77 nM
